14 compounds from PubChem BioAssay (NCI) can be followed below.

Molecules are shown by their SMILES.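 Five compound concentrations were applied to cells in 96-well plates for 48 hours; endpoints were derived by simple linear interpolation of the resulting dose-response curve. The concentration for full growth arrest is given as TGI.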 Bounds are passed on as bounds.

Test systems include SF-295 CNS; OVCAR-3 ovarian; ACHN renal; PC-3 prostate; RPMI-8226 leukemia; CCRF-CEM leukemia; MALME-3M melanoma; UACC-257 melanoma; BT-549 breast.
What all share (assay): inhibition of tumour cell growth, NCI panel, 48 h

With `Cc1ccc(C(=O)OC[C@H]2CC[C@@H](n3cc(N(C)C4CCCCC4)c(=O)[nH]c3=O)O2)cc1`, the TGI is 43.1 µM in the test with SF-295 CNS; 54.4 µM with OVCAR-3 ovarian; 79.3 µM in the test on ACHN renal; greater than 100 µM with PC-3 prostate; 77.9 µM in the test on RPMI-8226 leukemia; 93 µM in the test with CCRF-CEM leukemia. Besides, the values for the TGI in the test on MALME-3M melanoma and in the test with UACC-257 melanoma were 56.7 µM and 98.5 µM, respectively.
As for `CN(C)C(=S)N/N=C\C=N/NC(=S)N(C)C`, the TGI with SF-295 CNS is greater than 32.1 µM; in the test on OVCAR-3 ovarian, greater than 100 µM; in the test on PC-3 prostate it was greater than 100 µM; in the test with RPMI-8226 leukemia, greater than 100 µM; with UACC-257 melanoma, greater than 100 µM; with BT-549 breast, greater than 100 µM.
With `O=c1[nH]nc(Cc2ccccc2)n1/N=C/c1c[nH]c2ccccc12`, the TGI in the test with SF-295 CNS, in the test on OVCAR-3 ovarian, in the test on ACHN renal, in the test with PC-3 prostate, with RPMI-8226 leukemia and in the test with CCRF-CEM leukemia was greater than 100 µM each time. For the same compound, the TGI in the test with MALME-3M melanoma and in the test with UACC-257 melanoma was greater than 100 µM throughout.
On to `CCOC(=O)/C(=C\NCC(O)c1ccccc1)c1nc2ccccc2[nH]1` (stereo unspecified), for which the TGI in the test on SF-295 CNS is 67 µM; in the test on OVCAR-3 ovarian, greater than 100 µM; in the test with ACHN renal, 28.8 µM; with RPMI-8226 leukemia it was 29.4 µM; in the test with CCRF-CEM leukemia, 33.3 µM; in the test on MALME-3M melanoma, 52 µM. The TGI was found to be 42.5 µM with UACC-257 melanoma and 98.7 µM in the test with BT-549 breast.
With `CCC1C(=O)C[C@H]2[C@@H]3C(O)CC4=CC(=O)CC[C@]4(C)[C@H]3CC[C@]12C` (stereo partly specified), the TGI with SF-295 CNS, with OVCAR-3 ovarian, with ACHN renal, in the test on PC-3 prostate, in the test with RPMI-8226 leukemia and in the test on CCRF-CEM leukemia was greater than 50 µM in each case. Moreover, the TGI in the test with MALME-3M melanoma and in the test on UACC-257 melanoma was greater than 50 µM throughout.
In the case of `COC(=O)CCCc1ccc2c(c1)CC1(C2)Cc2cc3c(cc2C1)CCCC3`, the TGI with SF-295 CNS is greater than 100 µM; with OVCAR-3 ovarian, greater than 100 µM; with ACHN renal, greater than 100 µM; in the test with PC-3 prostate it was greater than 100 µM; with RPMI-8226 leukemia, 85.2 µM; in the test on MALME-3M melanoma, greater than 100 µM. The compound further showed a TGI in the test with UACC-257 melanoma greater than 100 µM.
With `COC1=CC(=O)c2ccccc2C1(CCC=C(C)C)C1=NC(C)(C)CO1` (stereo unspecified), the TGI in the test on SF-295 CNS, in the test with OVCAR-3 ovarian, with ACHN renal, in the test on RPMI-8226 leukemia, in the test on CCRF-CEM leukemia and in the test on MALME-3M melanoma was greater than 100 µM throughout. In the test on UACC-257 melanoma, this compound returned a TGI greater than 100 µM.
Turning to `O=C(Nc1ccccc1)O/N=C(/CBr)c1ccccc1`, the TGI in the test with SF-295 CNS was 70.1 µM; in the test with OVCAR-3 ovarian, 37.9 µM; with ACHN renal, 33.2 µM; in the test with PC-3 prostate, 30.3 µM; in the test on RPMI-8226 leukemia, 51.3 µM; in the test with CCRF-CEM leukemia it was greater than 100 µM. Also, the TGI came to 33.9 µM with MALME-3M melanoma and 35.5 µM in the test on UACC-257 melanoma.
In the case of `Cc1ccc(S(=O)(=O)N/C(=C\C=C\c2ccccc2)C(=O)C(C)(C)C)cc1`, the TGI in the test with SF-295 CNS was greater than 100 µM; in the test on OVCAR-3 ovarian it was greater than 100 µM; in the test on ACHN renal, greater than 100 µM; in the test with PC-3 prostate it was greater than 100 µM; in the test on RPMI-8226 leukemia it was 75.9 µM; with CCRF-CEM leukemia it was greater than 100 µM. For the same compound, the TGI in the test on MALME-3M melanoma and in the test with UACC-257 melanoma was greater than 100 µM in each case.
Turning to `O=[N+]([O-])c1cccc(-c2csc(N=Nc3c(O)[nH]c4ccccc34)n2)c1`, the TGI is 44.4 µM in the test on SF-295 CNS; greater than 100 µM in the test on OVCAR-3 ovarian; greater than 100 µM in the test with ACHN renal; 99.4 µM in the test with PC-3 prostate; 56.5 µM in the test with CCRF-CEM leukemia; 41.3 µM with UACC-257 melanoma. Further, the TGI with BT-549 breast is greater than 100 µM.
For the compound `Cc1cc2c(cc1Cl)Sc1nnc(Nc3ccccc3)n1S2(=O)=O`, the TGI is 49.6 µM in the test on SF-295 CNS; 7.1 µM in the test on OVCAR-3 ovarian; 30.3 µM with ACHN renal; 22.1 µM in the test on PC-3 prostate; 6.91 µM with RPMI-8226 leukemia; 61.2 µM with UACC-257 melanoma. Besides, the TGI with BT-549 breast came out at 34 µM.
As to `C=CCC(C)C12CCNC(Cc3ccc(O)cc31)C2C` (stereo unspecified), the TGI in the test with SF-295 CNS, in the test with ACHN renal, in the test on RPMI-8226 leukemia, in the test with CCRF-CEM leukemia, in the test on MALME-3M melanoma and with UACC-257 melanoma was greater than 100 µM throughout.
With `CN(C)c1ccc(/C=N/Nc2nc3ccccc3c(=O)n2-c2ccccc2)cc1`, the TGI in the test with SF-295 CNS, with OVCAR-3 ovarian, with ACHN renal, in the test with PC-3 prostate, in the test on CCRF-CEM leukemia and in the test on MALME-3M melanoma was greater than 100 µM throughout. In the test on UACC-257 melanoma, this compound registered a TGI greater than 100 µM.
As for `CC(=O)C(C(C)=O)=C1CCCC(O)O1` (stereo unspecified), the TGI in the test on SF-295 CNS, with ACHN renal, in the test on RPMI-8226 leukemia, with CCRF-CEM leukemia, in the test on MALME-3M melanoma and with UACC-257 melanoma was greater than 100 µM each time.
